The results in this text go back to patent US20120040996A1, “3-BENZOFURANYL-INDOL-2-ONE DERIVATIVES SUBSTITUTED AT THE 3 POSITION, PREPARATION THEREOF, AND THERAPEUTIC USE THEREOF” (SANOFI, priority 2009, published 2012).

The target of the assay is T1, ghrelin receptor (Rattus norvegicus, UniProt O08725).
T1 construct: Strips of approximately 1 cm (5 mm wide) of gastric fundus were cut out along the longitudinal axis; from tissue; host or cells: rat gastric fundus strips
The assay can be described thus: Ghrelin concentration-response on electrically stimulated isolated rat gastric fundus strips (headed "In Vivo Test"). As to conditions: electric-field stimulation, ghrelin 0.1 nM-1 μM, antagonist contact time 30 minutes, read-out: IC50, antagonist activity towards the ghrelin receptor. On the procedure:
Male Crl CD BR rats (Charles River, Italy) weighing 150-175 g were housed in a chamber at regulated temperature (22±1° C.) and humidity (55±10%) and with a 12-hour lightness-darkness cycle, for at least 7 days before their use. Feed and water were available ad libitum. The feed was removed 18 hours before sacrificing the animals. The rats were sacrificed by cervical dislocation, and the stomach was removed surgically, opened along the shorter curvature and placed in a Krebs solution (of composition (mM): 118.4 NaCl; 4.7 KCl; 2.5 CaCl2; 3.7 NaH2PO4; 1.2 MgSO4; 25 NaHCO3; 5.6 glucose). The animals were cared for and sacrificed according to the Sanofi-Aventis international code of ethics and the international principles governing the care and treatment of laboratory animals (EEC Directive 86/609, DJL358, 1, 12 Dec. 1987). […] The contractions were recorded by computer with a data recording and analysis system (Power Lab, Chart 5) connected to isotonic transducers (Ugo Basile, Varese, Italy) via preamplifiers (Octal Bridge Amp). […] The pKb values for the antagonists were calculated according to the Cheng-Prusoff equation (Kenakin et al., Competitive Antagonism, Pharmacologic Analysis of Drug-Receptor Interaction, 3rd edition, 331-373, Philadelphia, New York; Raven: Lippincott, 1997).

T1 sequence (O08725 whole entry): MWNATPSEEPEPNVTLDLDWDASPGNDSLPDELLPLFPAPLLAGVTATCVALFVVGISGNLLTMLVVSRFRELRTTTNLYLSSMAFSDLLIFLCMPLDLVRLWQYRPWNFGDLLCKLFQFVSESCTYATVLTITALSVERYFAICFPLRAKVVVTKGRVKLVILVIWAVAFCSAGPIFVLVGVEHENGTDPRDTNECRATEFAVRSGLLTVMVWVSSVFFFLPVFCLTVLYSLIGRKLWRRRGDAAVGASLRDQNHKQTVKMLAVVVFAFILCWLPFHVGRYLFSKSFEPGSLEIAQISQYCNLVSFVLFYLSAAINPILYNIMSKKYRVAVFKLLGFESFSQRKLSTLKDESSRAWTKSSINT

As for `CCN1CCN(CC(=O)NC2(c3ccc4occc4c3)C(=O)Nc3cc(Cl)cc(Cl)c32)CC1` (single isomer, unassigned; (+)) [Example 1, (+)-N-[4,6-Dichloro-3-(benzofuran-5-yl)-2-oxo-2,3-dihydro-1H-indol-3-yl]-2-(4-ethylpiperazin-1-yl)acetamide], the IC50 (usually the concentration at which inhibition is half-maximal) amounted to 22 nM.
